By IC50 is commonly meant the concentration that gives 50% inhibition.

Series [1] can be described thus: In vivo pharmacokinetics: serum levels after oral dosage (HPLC/UV). The conditions noted are these: rat; for oral absorption (blood serum levels after oral administration): oral 10 mg/kg in corn oil, over 60 minutes, FIG. 1; for metabolic stability: oral 10 mg/kg, in vivo pharmacokinetics assay. The method, then:
Absorption and metabolic stability were studied using an in vivo pharmacokinetics assay. Drug levels assessed using HPLC/UV.
Following overnight starvation, male Wistar rats (250 g) were given a bolus gavage of 500 μL of a solution of test compound in corn oil (5 mg/mL). Blood samples (1 mL, whole blood) were taken at various time intervals and the serum collected following centrifugation. Samples were frozen until required for analysis.
Ethyl acetate (4 mL) was added to the defrosted serum and the samples mixed for 20 minutes. Following centrifugation, the ethyl acetate layer was collected and evaporated under a stream of nitrogen. The residue was reconstituted in mobile phase and 20 μL injected onto the chromatogram.
Standard calibration curves were prepared for each of the test compounds and were linear in the range of 1 ng/mL to 250 ng/mL.
Mobile phase: 60% 25 mM ammonium acetate, pH 4; 40% acetonitrile.
Serum levels of the following compounds, following oral dosage (10 mg/kg) over the course of 60 minutes, were investigated in vivo in rats using an HPLC/UV detection system, as described above: […]

The subject of series [2] is TNFα-stimulated phosphorylation of IκB. Put plainly: TNFα-stimulated phosphorylation of IκB in mouse macrophages (Western blot). The class given is cell-based. As to conditions: 10 μM and 25 μM, 1 hour pre-treatment, 5 minutes TNFα, FIG. 4. The protocol: (§1) Bone marrow cells were flushed out of the long bones of 3-5 month old mice, and cultured in 10 cm tissue culture dishes for three days in α-MEM supplemented with 10% FCS, antibiotics, and recombinant mouse M-CSF (100 ng/mL). The cells were then harvested by trypsinisation, and re-plated in 6 well-plates (3×10^5 cells per well) and cultured in medium as described above for 2 more days. Cells were then serum starved and pre-treated with test compounds for 1 hour, followed by 5 minutes stimulation with TNFα. After stimulation, the cells were washed in PBS and homogenized in lysis buffer containing PBS, 0.1% (w/v) sodium dodecyl sulphate (SDS), 0.5% (w/v) sodium deoxycholate, and 2% (v/v) protease inhibitor cocktail. The cell lysates were centrifuged as 12,000 g for 10 minutes at 4° C., and the supernatant was collected and protein concentration determined using a Bio-Rad protein assay kit. Aliquots of the cell lysate containing 50 μg protein per lane were run on a 10% denaturing acrylamide gel and blotted onto a nylon membrane. The membranes were washed in Tris buffered saline (TBS) and incubated overnight at 4° C. with the relevant primary antibodies (phospho-IκB and phospho-p42/44 Erk, Cell Signalling Technology, 1:1000 dilution). […]
(In general: In western blotting, separated proteins are transferred to a membrane and probed.)

Series [3] deals with mouse collagen-induced arthritis model. Description: Collagen-induced arthritis (CIA) model, joint inflammation scoring. The class given is in vivo. As to conditions: 10 mg/kg/day i.p. The method, then:
Collagen-induced arthritis (CIA) was induced in 8-week old male DBA/1 mice, by intradermal injection of 100 μL of chicken collagen type II (2 mg/mL) suspended in complete Freund's adjuvant supplemented with 2 mg/mL devitalised M. Tuberculosis into the base of the tail. This will lead to joint inflammation in >80% of the animals within 4 weeks. Treatment with ABD455 (10 mg/kg/day, delivered in corn oil) was started when joint inflammation became apparent in the first animals (in this experiment 15 days after injection), and the experiment terminated 3 weeks later. For each animal the scores for all four joints were added (maximal score=12).

In series [4] the test system is TNFα-stimulated phosphorylation of p42/44 Erk. Description: TNFα-stimulated phosphorylation of p42/44 Erk in mouse macrophages (Western blot). The class given is cell-based. The conditions noted are these: 10 μM and 25 μM, 1 hour pre-treatment, 5 minutes TNFα, FIG. 5. The method, then: as §1
Series [5] deals with macrophage cell line J774. Put plainly: Alamar Blue macrophage J774 viability assay. It counts as cell-based. The conditions noted are these: Mus musculus; J774 cells, 72 hours with compound, n=5; Biological Study 1 table. The protocol: The assays are based on the survival of the J774 macrophage cell line; macrophages are closely related to osteoclasts.
J774 cells were plated at 10^4 cells per well in 100 μL αMEM (α Modified Eagle Medium) in 96-well plates and grown overnight. The next day, test compounds were added to the cultures, and cultures were continued for another 72 hours. At the end of the culture period, cell survival was determined using an Alamar Blue assay as previously described (see, e.g., Nociari et al., 1998).
Alamar Blue is an oxidation-reduction sensitive indicator. The dye itself is in the oxidised state, which is blue and non-fluorescent. […] Thus the transformation from oxidised form to reduced form can be measured by fluorimetric or colourimetric means. For fluorescence measurements, 530-560 nm excitation and 590 nm emission wavelengths are typically used. For colourimetric measurements, absorbance is measured at 570 nm (reduced form) and 600 nm (oxidised form) are typically used. A simple calculation is performed to determine the relative quantities of the two species. […]
Briefly, Alamar Blue (Biosource International) was added undiluted to the each well (1:10 v/v, 10 μL). The plate was incubated at 37° C. for 3-4 hours and the fluorescence was measured at 590 nm, with a 25 nm bandwidth. […]
(In general: Resazurin is reduced to fluorescent resorufin, in cell work by metabolically active cells.)

Entries after “also recorded” stand apart in the source; their conditions may differ.

In the case of `CCc1cc(-c2ccc(F)cc2F)ccc1S(=O)(=O)NCCCCO` [ABD385, 2′,4′-difluoro-3-ethyl-biphenyl-4-sulfonic acid (4-hydroxybutyl)-amide, reference compound], the “oral absorption (blood serum levels after oral administration)” value (from here on “oral absorption”) in series [1] was “not absorbed”.
As for `O=S(=O)(Nc1cccc(CO)c1)c1ccc(-c2ccc(Cl)cc2Cl)cc1` [ABD455, 2′,4′-Dichloro-biphenyl-4-sulfonic acid (3-hydroxymethyl-phenyl)-amide], the metabolic stability result in series [1] is “good degree of metabolic stability”. In addition, in series [2], the “effect on TNFα-stimulated phosphorylation of IκB” value is “completely block”. Moreover, in series [3] (10 mg/kg/day), the “effect on collagen-induced arthritis (in words)” value is recorded as “fully reverse the effects of collagen-induced arthritis; also recorded: much more effective in reversing the effects of collagen-induced arthritis than ABD295”. Moreover, in series [3] (after 21 days, n=10, untreated group 47, FIG. 2), the “sum of the joint inflammation scores (total joint score) of study group” value worked out at 3. Further, in series [4], the “effect on TNFα-stimulated phosphorylation of p42/44 Erk” value was “completely block”.
`O=S(=O)(Nc1ccc(CO)c(CO)c1)c1ccc(-c2ccc(Cl)cc2Cl)cc1` [ABD550, N-(3,4-Bis(hydroxymethyl)phenyl)-2′,4′-dichlorobiphenyl-4-sulfonamide]: in series [5], the half-inhibitory concentration (IC50) turned out to be 1200 ± 500 nM.
As for `Cc1cc(S(=O)(=O)NCCCCO)ccc1-c1ccc(F)cc1F` [ABD295, 2′,4′-difluoro-2-methyl-biphenyl-4-sulfonic acid (4-hydroxy-butyl)-amide, reference compound], in series [1], the “oral absorption” value was “not absorbed”. Moreover, the “sum of the joint inflammation scores (total joint score) of study group” value in series [3] (after 22 days, n=8, untreated group 29, FIG. 3) was 17.
As to `O=[N+]([O-])c1ccccc1-c1ccc(S(=O)(=O)Nc2cccc(CO)c2)cc1` [ABD514, 2′-Nitro-biphenyl-4-sulfonic acid (3-hydroxymethyl-phenyl)-amide], in series [5], the IC50 is more than 4000 nM.
For `O=S(=O)(Nc1cccc(CO)c1)c1ccc(-c2ccc(F)cc2F)cc1` [ABD456, 2′,4′-Difluoro-biphenyl-4-sulfonic acid (3-hydroxymethyl-phenyl)-amide], the metabolic stability result in series [1] is recorded as “good degree of metabolic stability”. Also, the “effect on TNFα-stimulated phosphorylation of IκB” value in series [2] is “completely block”. Also, in series [4], the “effect on TNFα-stimulated phosphorylation of p42/44 Erk” value is “completely block”.
With `O=S(=O)(NCCCCO)c1ccc(-c2ccc(F)cc2)cc1` [ABD200, 4′-fluoro-biphenyl-4-sulfonic acid (4-hydroxybutyl)-amide, reference compound], the “oral absorption” value in series [1] is listed as “not absorbed”.
